Where two headings read alike, the source gives them in different places.
Legend:
Type in all cases: binding
[1] = biological target: T1, HeLa cell extract proteins (Homo sapiens, UniProt Q96T76)
T1 construct: endogenous in cells; host or cells: HeLa cell extract
T1 sequence (Q96T76 1-1030): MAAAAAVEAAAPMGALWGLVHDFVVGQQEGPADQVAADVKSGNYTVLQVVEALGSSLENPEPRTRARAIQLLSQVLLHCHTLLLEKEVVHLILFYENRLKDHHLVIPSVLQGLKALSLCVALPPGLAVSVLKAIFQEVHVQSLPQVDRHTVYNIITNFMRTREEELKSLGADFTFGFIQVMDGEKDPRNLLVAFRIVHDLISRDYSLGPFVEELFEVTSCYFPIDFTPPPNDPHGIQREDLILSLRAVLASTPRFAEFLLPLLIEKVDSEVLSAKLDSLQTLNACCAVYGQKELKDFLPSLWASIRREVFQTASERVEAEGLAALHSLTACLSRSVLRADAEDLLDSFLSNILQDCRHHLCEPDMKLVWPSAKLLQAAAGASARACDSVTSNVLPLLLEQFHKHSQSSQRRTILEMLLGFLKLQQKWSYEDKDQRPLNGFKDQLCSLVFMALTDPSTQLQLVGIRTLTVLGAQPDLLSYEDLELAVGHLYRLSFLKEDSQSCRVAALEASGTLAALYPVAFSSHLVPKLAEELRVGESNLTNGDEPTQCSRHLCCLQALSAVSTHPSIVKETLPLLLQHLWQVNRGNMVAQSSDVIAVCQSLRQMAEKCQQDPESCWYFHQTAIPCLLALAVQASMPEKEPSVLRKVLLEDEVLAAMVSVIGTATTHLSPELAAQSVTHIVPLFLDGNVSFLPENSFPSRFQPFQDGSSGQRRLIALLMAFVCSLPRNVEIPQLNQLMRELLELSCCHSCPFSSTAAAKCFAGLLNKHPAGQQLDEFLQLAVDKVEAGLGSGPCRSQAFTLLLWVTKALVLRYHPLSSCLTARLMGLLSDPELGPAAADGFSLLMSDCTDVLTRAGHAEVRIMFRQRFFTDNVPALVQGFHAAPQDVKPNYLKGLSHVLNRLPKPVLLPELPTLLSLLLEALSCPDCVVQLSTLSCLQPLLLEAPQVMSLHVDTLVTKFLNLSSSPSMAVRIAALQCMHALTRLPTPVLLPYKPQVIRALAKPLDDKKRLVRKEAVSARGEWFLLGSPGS

[2] = biological target: T2, HeLa cell extract proteins (Homo sapiens, UniProt Q9NU22)
T2 construct: endogenous in cells; host or cells: HeLa cell extract

[3] = biological target: T3, HeLa cell extract proteins (Homo sapiens, UniProt P61769)
T3 construct: endogenous in cells; host or cells: HeLa cell extract
T3 sequence (P61769 21-119): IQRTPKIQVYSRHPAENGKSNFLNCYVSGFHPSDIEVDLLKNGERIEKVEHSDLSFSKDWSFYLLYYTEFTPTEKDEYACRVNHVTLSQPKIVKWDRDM

[4] = biological target: T4, HeLa cell extract proteins (Homo sapiens, UniProt P62258)
T4 construct: endogenous in cells; host or cells: HeLa cell extract
T4 sequence (P62258 1-255): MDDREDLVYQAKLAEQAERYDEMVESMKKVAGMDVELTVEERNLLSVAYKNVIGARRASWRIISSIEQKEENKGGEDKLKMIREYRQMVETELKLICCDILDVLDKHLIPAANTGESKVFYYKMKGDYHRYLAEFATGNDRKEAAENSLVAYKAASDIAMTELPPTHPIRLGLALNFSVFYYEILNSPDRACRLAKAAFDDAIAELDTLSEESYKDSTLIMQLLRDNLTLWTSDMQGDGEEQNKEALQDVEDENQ

[5] = biological target: T5, HeLa cell extract proteins (Homo sapiens, UniProt P53618)
T5 construct: endogenous in cells; host or cells: HeLa cell extract
T5 sequence (P53618 1-953): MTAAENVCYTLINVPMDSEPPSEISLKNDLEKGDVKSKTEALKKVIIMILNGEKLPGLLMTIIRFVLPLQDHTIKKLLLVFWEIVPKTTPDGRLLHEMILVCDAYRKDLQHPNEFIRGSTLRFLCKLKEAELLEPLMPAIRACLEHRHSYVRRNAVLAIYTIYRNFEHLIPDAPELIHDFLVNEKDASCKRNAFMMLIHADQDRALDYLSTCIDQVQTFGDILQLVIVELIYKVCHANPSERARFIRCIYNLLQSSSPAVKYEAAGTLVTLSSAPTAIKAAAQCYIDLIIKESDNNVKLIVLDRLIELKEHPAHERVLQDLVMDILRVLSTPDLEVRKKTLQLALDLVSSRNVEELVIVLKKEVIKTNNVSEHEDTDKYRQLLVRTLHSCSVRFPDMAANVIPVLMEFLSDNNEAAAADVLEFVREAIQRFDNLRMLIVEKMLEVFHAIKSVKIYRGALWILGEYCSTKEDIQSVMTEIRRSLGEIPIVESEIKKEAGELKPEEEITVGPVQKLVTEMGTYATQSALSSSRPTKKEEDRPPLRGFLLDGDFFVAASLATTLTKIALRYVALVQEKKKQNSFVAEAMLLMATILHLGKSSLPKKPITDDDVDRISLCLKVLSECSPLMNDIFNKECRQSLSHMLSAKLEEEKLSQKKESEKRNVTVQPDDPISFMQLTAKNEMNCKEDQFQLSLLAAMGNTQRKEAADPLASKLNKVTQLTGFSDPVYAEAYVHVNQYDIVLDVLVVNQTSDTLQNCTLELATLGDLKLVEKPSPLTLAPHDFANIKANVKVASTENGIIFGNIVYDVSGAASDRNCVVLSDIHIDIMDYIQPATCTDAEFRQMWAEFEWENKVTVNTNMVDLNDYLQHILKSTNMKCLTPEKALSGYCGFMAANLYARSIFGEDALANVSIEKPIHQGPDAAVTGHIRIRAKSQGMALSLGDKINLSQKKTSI

[6] = biological target: T6, HeLa cell extract proteins (Homo sapiens, UniProt P61019)
T6 construct: endogenous in cells; host or cells: HeLa cell extract
T6 sequence (P61019 whole entry): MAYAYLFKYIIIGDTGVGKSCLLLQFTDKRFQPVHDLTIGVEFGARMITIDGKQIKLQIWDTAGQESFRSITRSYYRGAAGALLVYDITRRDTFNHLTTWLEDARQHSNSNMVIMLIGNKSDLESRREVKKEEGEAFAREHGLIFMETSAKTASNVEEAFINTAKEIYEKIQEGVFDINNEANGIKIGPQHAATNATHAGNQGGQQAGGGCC

[7] = HeLa, protein B2M (CDNA FLJ57067, HIGHLY SIMILAR TO BETA-2-MICROGLOBULIN)

Nc1nc2cccc(-c3ccccc3)c2n1Cc1ccc(Cl)c(Cl)c1 [compound 3]
fold changes relative to vehicle control ([1]; captured protein MMS19, HeLa): 1.02
fold changes relative to vehicle control ([2]; captured protein MDN1, HeLa): 1.17
fold changes relative to vehicle control ([3]; protein B2M, HeLa): 1.07
fold changes relative to vehicle control ([4]; protein YWHAE, HeLa): 1.03
fold changes relative to vehicle control ([5]; HeLa, protein COPB1): 1.17
fold changes relative to vehicle control ([6]; captured protein RAB2A, HeLa): 0.83

CCCCCCOc1ccc(Cc2cnc(N)nc2N)cc1 [compound 1]
fold changes relative to vehicle control ([1]; captured protein MMS19, HeLa): 0.79
fold changes relative to vehicle control ([2]; captured protein MDN1, HeLa): 0.94
fold changes relative to vehicle control ([3]; protein B2M, HeLa): 1.14
fold changes relative to vehicle control ([4]; protein YWHAE, HeLa): 1.37
fold changes relative to vehicle control ([5]; HeLa, protein COPB1): 0.97
fold changes relative to vehicle control ([6]; captured protein RAB2A, HeLa): 0.64

NCCCNc1ccc(C(=O)NC(CCC(=O)O)C(=O)O)cc1 (stereo not drawn) [compound 7]
fold changes relative to vehicle control ([1]; HeLa, protein MMS19): 1.02
fold changes relative to vehicle control ([2]; HeLa, protein MDN1): 1
fold changes relative to vehicle control [3, 7]: 1.31
fold changes relative to vehicle control ([4]; HeLa, protein YWHAE): 1.03
fold changes relative to vehicle control ([5]; HeLa, protein COPB1): 0.97
fold changes relative to vehicle control ([6]; HeLa, protein RAB2A): 0.94

CCCCCCOc1cccc(Cc2cnc(N)nc2N)c1 [compound 2]
fold changes relative to vehicle control ([1]; captured protein MMS19, HeLa): 0.94
fold changes relative to vehicle control ([2]; captured protein MDN1, HeLa): 0.87
fold changes relative to vehicle control ([3]; protein B2M, HeLa): 1.16
fold changes relative to vehicle control ([4]; protein YWHAE, HeLa): 2
fold changes relative to vehicle control ([5]; HeLa, protein COPB1): 1.07
fold changes relative to vehicle control ([6]; captured protein RAB2A, HeLa): 1.09

NCCOCCOCC(=O)Nc1nc2ncc(CNc3ccc(C(=O)NC(CCC(=O)O)C(=O)O)cc3)nc2c(=O)[nH]1 (stereo not drawn) [compound 6]
fold changes relative to vehicle control ([1]; HeLa, protein MMS19): 0.97
fold changes relative to vehicle control ([2]; HeLa, protein MDN1): 1.12
fold changes relative to vehicle control [3, 7]: 1.37
fold changes relative to vehicle control ([4]; HeLa, protein YWHAE): 1.17
fold changes relative to vehicle control ([5]; HeLa, protein COPB1): 0.92
fold changes relative to vehicle control ([6]; HeLa, protein RAB2A): 1.09

Nc1nc2[nH]cc(CCc3ccc(C(=O)N[C@@H](CCC(=O)O)C(=O)O)cc3)c2c(=O)[nH]1 [PTX, pemetrexed]
fold changes relative to vehicle control [1]: 0.82
fold changes relative to vehicle control [2]: 0.94
fold changes relative to vehicle control [3]: 1.51
fold changes relative to vehicle control [4]: 1.1
fold changes relative to vehicle control [5]: 0.84
fold changes relative to vehicle control [6]: 0.93

Nc1nc2c(c(=O)[nH]1)N(C=O)C(CNc1ccc(C(=O)N[C@@H](CCC(=O)O)C(=O)O)cc1)CN2 (stereo partly drawn) [LEU, leucovorin]
fold changes relative to vehicle control ([1]; HeLa, protein MMS19): 0.87
fold changes relative to vehicle control ([2]; HeLa, protein MDN1): 0.96
fold changes relative to vehicle control [3, 7]: 1.24
fold changes relative to vehicle control ([4]; HeLa, protein YWHAE): 1.01
fold changes relative to vehicle control ([5]; HeLa, protein COPB1): 0.87
fold changes relative to vehicle control ([6]; HeLa, protein RAB2A): 0.85
